#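 At the GI50, growth is halved. TGI: total growth inhibition.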
# What was measured:
# Experiment in all cases: DTP human tumour cell line panel, 384-well format
# T-47D breast = system: T-47D breast
# TK-10 renal = system: TK-10 renal
# ACHN renal = system: ACHN renal
# COLO 205 colon = system: COLO 205 colon
# MDA-MB-435 melanoma = system: MDA-MB-435 melanoma
# UACC-62 melanoma = system: UACC-62 melanoma
# HL-60(TB) leukemia = system: HL-60(TB) leukemia
# CCRF-CEM leukemia = system: CCRF-CEM leukemia
# HCC-2998 colon = system: HCC-2998 colon
# SF-295 CNS = system: SF-295 CNS
# MOLT-4 leukemia = system: MOLT-4 leukemia
# A498 renal = system: A498 renal
# EKVX NSCLC = system: EKVX NSCLC
# IGROV1 ovarian = system: IGROV1 ovarian
# SW-620 colon = system: SW-620 colon
# NCI-H522 lung = system: NCI-H522 lung
# MALME-3M melanoma = system: MALME-3M melanoma
# NCI/ADR-RES ovarian = system: NCI/ADR-RES ovarian
# SK-MEL-5 melanoma = system: SK-MEL-5 melanoma
# SNB-75 CNS = system: SNB-75 CNS
# NCI-H23 lung = system: NCI-H23 lung
# UO-31 renal = system: UO-31 renal
# NCI-H460 NSCLC = system: NCI-H460 NSCLC
# NCI-H226 lung = system: NCI-H226 lung
# HOP-62 NSCLC = system: HOP-62 NSCLC
# 786-0 renal = system: 786-0 renal
# SK-OV-3 ovarian = system: SK-OV-3 ovarian
# KM12 colon = system: KM12 colon
# HT29 colon = system: HT29 colon
# OVCAR-8 ovarian = system: OVCAR-8 ovarian
# K-562 leukemia = system: K-562 leukemia
# CAKI-1 renal = system: CAKI-1 renal
# BT-549 breast = system: BT-549 breast
# LOX IMVI melanoma = system: LOX IMVI melanoma
# UACC-257 melanoma = system: UACC-257 melanoma
# MDA-MB-231 breast = system: MDA-MB-231 breast
# OVCAR-3 ovarian = system: OVCAR-3 ovarian
# SF-539 CNS = system: SF-539 CNS
# M14 melanoma = system: M14 melanoma
# U251 glioblastoma = system: U251 glioblastoma
# MDA-MB-468 breast = system: MDA-MB-468 breast
# SR leukemia = system: SR leukemia
# MCF7 breast = system: MCF7 breast
# OVCAR-4 ovarian = system: OVCAR-4 ovarian
# OVCAR-5 ovarian = system: OVCAR-5 ovarian
# RPMI-8226 leukemia = system: RPMI-8226 leukemia
# SNB-19 CNS = system: SNB-19 CNS
# RXF 393 renal = system: RXF 393 renal
# HS 578T breast = system: HS 578T breast
# SK-MEL-28 melanoma = system: SK-MEL-28 melanoma
# HOP-92 NSCLC = system: HOP-92 NSCLC
# SF-268 CNS = system: SF-268 CNS
# NCI-H322M lung = system: NCI-H322M lung
# PC-3 prostate = system: PC-3 prostate
# A549 NSCLC = system: A549 NSCLC
# HCT-15 colon = system: HCT-15 colon
# SN12C renal = system: SN12C renal
# DU-145 prostate = system: DU-145 prostate
compound,measurement,setting,value
COc1cc(CCc2cc(NC(=O)c3ccc(N4C[C@@H](C)N[C@@H](C)C4)cc3)n[nH]2)cc(OC)c1,GI50,T-47D breast,11.1 µM
same,TGI,T-47D breast,23.2 µM
same,GI50,TK-10 renal,11.8 µM
same,TGI,TK-10 renal,24.2 µM
same,GI50,ACHN renal,4.46 µM
same,TGI,ACHN renal,15.9 µM
same,GI50,COLO 205 colon,2310 nM
same,TGI,COLO 205 colon,5.36 µM
same,GI50,MDA-MB-435 melanoma,3.26 µM
same,TGI,MDA-MB-435 melanoma,10.8 µM
same,GI50,UACC-62 melanoma,3.07 µM
same,TGI,UACC-62 melanoma,10.7 µM
same,GI50,HL-60(TB) leukemia,1830 nM
same,TGI,HL-60(TB) leukemia,3.28 µM
same,GI50,CCRF-CEM leukemia,2330 nM
same,TGI,CCRF-CEM leukemia,4.13 µM
same,GI50,HCC-2998 colon,3.82 µM
same,TGI,HCC-2998 colon,12.8 µM
same,GI50,SF-295 CNS,4.91 µM
same,TGI,SF-295 CNS,15.5 µM
same,GI50,MOLT-4 leukemia,1860 nM
same,TGI,MOLT-4 leukemia,3.36 µM
same,GI50,A498 renal,3.66 µM
same,TGI,A498 renal,13.7 µM
same,GI50,EKVX NSCLC,10.4 µM
same,TGI,EKVX NSCLC,22.2 µM
same,GI50,IGROV1 ovarian,3.8 µM
same,TGI,IGROV1 ovarian,14 µM
same,GI50,SW-620 colon,4.21 µM
same,TGI,SW-620 colon,15.3 µM
same,GI50,NCI-H522 lung,5.63 µM
same,TGI,NCI-H522 lung,17.9 µM
same,GI50,MALME-3M melanoma,2030 nM
same,TGI,MALME-3M melanoma,4.37 µM
same,GI50,NCI/ADR-RES ovarian,17.5 µM
same,TGI,NCI/ADR-RES ovarian,31.5 µM
same,GI50,SK-MEL-5 melanoma,1590 nM
same,TGI,SK-MEL-5 melanoma,2950 nM
same,GI50,SNB-75 CNS,4.55 µM
same,TGI,SNB-75 CNS,17.1 µM
same,GI50,NCI-H23 lung,2420 nM
same,TGI,NCI-H23 lung,6.77 µM
same,GI50,UO-31 renal,11.1 µM
same,TGI,UO-31 renal,23.9 µM
same,GI50,NCI-H460 NSCLC,3.39 µM
same,TGI,NCI-H460 NSCLC,10.9 µM
same,GI50,NCI-H226 lung,1490 nM
same,TGI,NCI-H226 lung,10.9 µM
same,GI50,HOP-62 NSCLC,5.65 µM
same,TGI,HOP-62 NSCLC,17.3 µM
same,GI50,786-0 renal,3.07 µM
same,TGI,786-0 renal,9.35 µM
same,GI50,SK-OV-3 ovarian,2990 nM
same,TGI,SK-OV-3 ovarian,11 µM
same,GI50,KM12 colon,51.6 nM
same,TGI,KM12 colon,1460 nM
same,GI50,HT29 colon,1850 nM
same,TGI,HT29 colon,3.72 µM
same,GI50,OVCAR-8 ovarian,9.65 µM
same,TGI,OVCAR-8 ovarian,21.5 µM
same,GI50,K-562 leukemia,2500 nM
same,TGI,K-562 leukemia,4.83 µM
same,GI50,CAKI-1 renal,3.65 µM
same,TGI,CAKI-1 renal,14 µM
same,GI50,BT-549 breast,1950 nM
same,TGI,BT-549 breast,8.13 µM
same,GI50,LOX IMVI melanoma,1900 nM
same,TGI,LOX IMVI melanoma,3.58 µM
same,GI50,UACC-257 melanoma,1530 nM
same,TGI,UACC-257 melanoma,2900 nM
same,GI50,MDA-MB-231 breast,5.81 µM
same,TGI,MDA-MB-231 breast,18.3 µM
same,GI50,OVCAR-3 ovarian,11.9 µM
same,TGI,OVCAR-3 ovarian,24.3 µM
same,GI50,SF-539 CNS,1690 nM
same,TGI,SF-539 CNS,4.18 µM
same,GI50,M14 melanoma,1710 nM
same,TGI,M14 melanoma,3.35 µM
same,GI50,U251 glioblastoma,6.52 µM
same,TGI,U251 glioblastoma,19 µM
same,GI50,MDA-MB-468 breast,3.46 µM
same,TGI,MDA-MB-468 breast,6.61 µM
same,GI50,SR leukemia,1800 nM
same,TGI,SR leukemia,3.21 µM
same,GI50,MCF7 breast,3.06 µM
same,TGI,MCF7 breast,10.9 µM
same,GI50,OVCAR-4 ovarian,6.69 µM
same,TGI,OVCAR-4 ovarian,19.7 µM
same,GI50,OVCAR-5 ovarian,3.22 µM
same,TGI,OVCAR-5 ovarian,9.57 µM
same,GI50,RPMI-8226 leukemia,2260 nM
same,TGI,RPMI-8226 leukemia,4.41 µM
same,GI50,SNB-19 CNS,15.3 µM
same,TGI,SNB-19 CNS,28.8 µM
same,GI50,RXF 393 renal,2130 nM
same,TGI,RXF 393 renal,5.28 µM
same,GI50,HS 578T breast,2190 nM
same,TGI,HS 578T breast,4.58 µM
same,GI50,SK-MEL-28 melanoma,2330 nM
same,TGI,SK-MEL-28 melanoma,5.37 µM
same,GI50,HOP-92 NSCLC,3.61 µM
same,TGI,HOP-92 NSCLC,15 µM
same,GI50,SF-268 CNS,5.42 µM
same,TGI,SF-268 CNS,18.2 µM
same,GI50,NCI-H322M lung,5.5 µM
same,TGI,NCI-H322M lung,17.4 µM
same,GI50,PC-3 prostate,4.91 µM
same,TGI,PC-3 prostate,16.1 µM
same,GI50,A549 NSCLC,4.71 µM
same,TGI,A549 NSCLC,15.7 µM
same,GI50,HCT-15 colon,3.39 µM
same,TGI,HCT-15 colon,11.2 µM
same,GI50,SN12C renal,2540 nM
same,TGI,SN12C renal,10.1 µM
same,GI50,DU-145 prostate,5.91 µM
same,TGI,DU-145 prostate,18 µM

# From PubChem BioAssay (NCI)
